In patent publication US4015974A, “Amido phosphorothiolates” (priority 1972, dated 1977):

How the values were obtained:
Type in all cases: in vivo
[1] = test system: broad-leaved weeds, e.g., monochoria, false pimpernel and toothcup; assay: Water application, herbicidal effect on broad-leaved weeds (Table 2); design: key: 0: not damaged; 5: completely killed; conditions: 25 days, score 0-5
Source text: (§1) Wagner pots of 14 cm. in diameter, which had been packed with 1.5 kg. of paddy field soil, were brought into the state of paddy fields. To the pots were transplanted rice seedlings at the 3-leave stage. Further, seeds of barnyard grass (Echinochloa crus-galli) were sowed in the pots and required amounts of test compounds were applied to the soil under water lodged condition. 25 days after application, the degrees of herbicidal activity and phytotoxity were investigated on above-mentioned plants which had been transplanted and sowed, and on broad-leaved weeds, e.g., monochoria (Monochoria viaginalis Presl.), false pimpernel (Linderna pyxidaria) and toothcup (Rotala indica Koehue), which had been spontaneously germinated. The test compounds were used in the form of wettable powder. The herbicidal effects and the phytotoxity were evaluated as follows by the numerals ranging from 0 to 5.

[2] = test system: barnyard grass (Echinochloa crus-galli); assay: Water application, herbicidal effect on barnyard grass (Table 2); design: key: 0: not damaged; 5: completely killed; conditions: 25 days, score 0-5
Source text: as §1

[3] = test system: common purslane (Portulaca oleracea); assay: Pre-emergence application, herbicidal effect on common purslane (Table 1); design: key: 0: not damaged; 5: completely killed; conditions: 20 days after application, score 0-5
Source text: (§2) Seeds of barnyard grass (Echinochloa crus-galli) and large crabgrass (Digitaria sanguinalis) as representatives of grassy weeds and those of radish, redroot pigweed (Amaranthus retroflexus), common purslane (Portulaca oleracea) and common lambsquarter (Chenopodium album) as representatives of broad-leaved weeds were individually sowed in flower pots of about 10 cm. in diameter. After covering the seeds with soil, test compounds as shown in Table 1 were individually applied to the soil treatment. Thereafter the plants were grown in a green house and 20 days after application the herbicidal effects of the compounds were observed, the results of which are as shown in Table 1.
(§3) Herbicidal effects were evaluated by the numerals ranging from 0 (not damaged) to 5 (completely killed). All the test compounds were used in the form of wettable powder and diluted with water before application.

radish = assay: Pre-emergence application, herbicidal effect on radish (Table 1); design: key: 0: not damaged; 5: completely killed; conditions: 20 days after application, score 0-5
Source text: as §2, §3

[4] = test system: barnyard grass (Echinochloa crus-galli); assay: Pre-emergence application, herbicidal effect on barnyard grass (Table 1); design: key: 0: not damaged; 5: completely killed; conditions: 20 days after application, score 0-5
Source text: as §2, §3

[5] = test system: redroot pigweed (Amaranthus retroflexus); assay: Pre-emergence application, herbicidal effect on redroot pigweed (Table 1); design: key: 0: not damaged; 5: completely killed; conditions: 20 days after application, score 0-5
Source text: as §2, §3

[6] = test system: common lambsquarter (Chenopodium album); assay: Pre-emergence application, herbicidal effect on common lambsquarter (Table 1); design: key: 0: not damaged; 5: completely killed; conditions: 20 days after application, score 0-5
Source text: as §2, §3

rice = assay: Water application, phytotoxicity on rice (Table 2); design: key: 0: no effect; 1: very slightly affected; 2: slightly affected; 3: moderately affected; 4: considerably affected; 5: completely killed; conditions: 25 days, score 0-5
Source text: as §1

[7] = test system: large crabgrass (Digitaria sanguinalis); assay: Pre-emergence application, herbicidal effect on large crabgrass (Table 1); design: key: 0: not damaged; 5: completely killed; conditions: 20 days after application, score 0-5
Source text: as §2, §3

Row | Compound | Herbicidal effects, broad-leaved weeds ([1]; 10 g/a) | Herbicidal effects, broad-leaved weeds ([1]; 20 g/a) | Herbicidal effects, broad-leaved weeds ([1]; 40 g/a) | Herbicidal effects, barnyard grass ([2]; 10 g/a) | Herbicidal effects, barnyard grass ([2]; 20 g/a) | Herbicidal effects, barnyard grass ([2]; 40 g/a) | Herbicidal effect, common purslane ([3]; 10 g./a.) | Herbicidal effect, common purslane ([3]; 20 g./a.) | Herbicidal effect, common purslane ([3]; 40 g./a.) | Herbicidal effect, radish (radish; 10 g./a.) | Herbicidal effect, radish (radish; 20 g./a.) | Herbicidal effect, radish (radish; 40 g./a.) | Herbicidal effect, barnyard grass ([4]; 10 g./a.) | Herbicidal effect, barnyard grass ([4]; 20 g./a.) | Herbicidal effect, barnyard grass ([4]; 40 g./a.) | Herbicidal effect, redroot pigweed ([5]; 10 g./a.) | Herbicidal effect, redroot pigweed ([5]; 20 g./a.) | Herbicidal effect, redroot pigweed ([5]; 40 g./a.) | Phytotoxicity on rice (rice; 20 g/a) | Phytotoxicity on rice (rice; 40 g/a) | other results
1 | CCCOP(=O)(SCC(=O)N1CCCCC1CC)SCC(C)C (stereo not drawn) [Compound 88] | 5 | 5 | 5 | 5 | 5 | 5 | 3 | 3 | 4 | 0 | 0 | 0 | 5 | 5 | 5 | 3 | 3 | 4 | 0 | 0 | Herbicidal effect, common lambsquarter ([6]; 10 g./a.): 3; Herbicidal effect, common lambsquarter ([6]; 20 g./a.): 3; Herbicidal effect, common lambsquarter ([6]; 40 g./a.): 4; Phytotoxicity on rice (rice; 10 g/a): 0; Herbicidal effect, large crabgrass ([7]; 10 g./a.): 5; Herbicidal effect, large crabgrass ([7]; 20 g./a.): 5; Herbicidal effect, large crabgrass ([7]; 40 g./a.): 5
2 | CCCCCSP(=O)(OCCC)SCC(=O)N1CCCCC1CC (stereo not drawn) [Compound 89] | 5 | 5 | 5 | 5 | 5 | 5 | 3 | 4 | 5 | 0 | 0 | 0 | 4 | 5 | 5 | 3 | 4 | 5 | 0 | 0 | Herbicidal effect, common lambsquarter ([6]; 10 g./a.): 3; Herbicidal effect, common lambsquarter ([6]; 20 g./a.): 4; Herbicidal effect, common lambsquarter ([6]; 40 g./a.): 5; Phytotoxicity on rice (rice; 10 g/a): 0; Herbicidal effect, large crabgrass ([7]; 10 g./a.): 4; Herbicidal effect, large crabgrass ([7]; 20 g./a.): 5; Herbicidal effect, large crabgrass ([7]; 40 g./a.): 5
3 | CCCCCSP(=O)(OCC)SCC(=O)N1CCCCC1CC (stereo not drawn) [Compound 78] | 5 | 5 | 5 | 5 | 5 | 5 | 4 | 4 | 5 | 0 | 0 | 0 | 5 | 5 | 5 | 4 | 4 | 5 | 0 | 0 | Herbicidal effect, common lambsquarter ([6]; 10 g./a.): 3; Herbicidal effect, common lambsquarter ([6]; 20 g./a.): 4; Herbicidal effect, common lambsquarter ([6]; 40 g./a.): 5; Phytotoxicity on rice (rice; 10 g/a): 0; Herbicidal effect, large crabgrass ([7]; 10 g./a.): 5; Herbicidal effect, large crabgrass ([7]; 20 g./a.): 5; Herbicidal effect, large crabgrass ([7]; 40 g./a.): 5
4 | CCCOP(=O)(SCCC)SCC(=O)N1CCCCC1C (stereo not drawn) [Compound 16, O,S-di-n-propyl-S-(2-methylpiperidinocarbamoylmethyl)phosphorodithiolate] | 5 | 5 | 5 | 5 | 5 | 5 | 4 | 4 | 4 | 0 | 0 | 0 | 4 | 4 | 5 | 4 | 4 | 4 | 0 | 0 | Herbicidal effect, common lambsquarter ([6]; 10 g./a.): 4; Herbicidal effect, common lambsquarter ([6]; 20 g./a.): 4; Herbicidal effect, common lambsquarter ([6]; 40 g./a.): 5; Phytotoxicity on rice (rice; 10 g/a): 0; Herbicidal effect, large crabgrass ([7]; 10 g./a.): 5; Herbicidal effect, large crabgrass ([7]; 20 g./a.): 5; Herbicidal effect, large crabgrass ([7]; 40 g./a.): 5
5 | CCOP(=O)(SCC)SCC(=O)N1CCCCC1C (stereo not drawn) [Compound 1] | 5 | 5 | 5 | 5 | 5 | 5 | 4 | 4 | 5 | 0 | 0 | 0 | 5 | 5 | 5 | 4 | 5 | 5 | 0 | 0 | Herbicidal effect, common lambsquarter ([6]; 10 g./a.): 4; Herbicidal effect, common lambsquarter ([6]; 20 g./a.): 4; Herbicidal effect, common lambsquarter ([6]; 40 g./a.): 5; Phytotoxicity on rice (rice; 10 g/a): 0; Herbicidal effect, large crabgrass ([7]; 10 g./a.): 5; Herbicidal effect, large crabgrass ([7]; 20 g./a.): 5; Herbicidal effect, large crabgrass ([7]; 40 g./a.): 5
6 | CCOP(=O)(SCC)SCC(=O)N1CCCC(C)C1 (stereo not drawn) [Compound 71] | 5 | 5 | 5 | 5 | 5 | 5 | 4 | 5 | 5 | 0 | 1 | 2 | 5 | 5 | 5 | 4 | 5 | 5 | 0 | 0 | Herbicidal effect, common lambsquarter ([6]; 10 g./a.): 4; Herbicidal effect, common lambsquarter ([6]; 20 g./a.): 4; Herbicidal effect, common lambsquarter ([6]; 40 g./a.): 5; Phytotoxicity on rice (rice; 10 g/a): 0; Herbicidal effect, large crabgrass ([7]; 10 g./a.): 5; Herbicidal effect, large crabgrass ([7]; 20 g./a.): 5; Herbicidal effect, large crabgrass ([7]; 40 g./a.): 5
7 | CCCCCSP(=O)(OCCC)SCC(=O)N1CCCCC1C (stereo not drawn) [Compound 68] | 5 | 5 | 5 | 5 | 5 | 5 | 3 | 4 | 5 | 0 | 0 | 0 | 4 | 4 | 5 | 4 | 4 | 5 | 0 | 0 | Herbicidal effect, common lambsquarter ([6]; 10 g./a.): 4; Herbicidal effect, common lambsquarter ([6]; 20 g./a.): 4; Herbicidal effect, common lambsquarter ([6]; 40 g./a.): 5; Phytotoxicity on rice (rice; 10 g/a): 0; Herbicidal effect, large crabgrass ([7]; 10 g./a.): 4; Herbicidal effect, large crabgrass ([7]; 20 g./a.): 4; Herbicidal effect, large crabgrass ([7]; 40 g./a.): 5
8 | O=[N+]([O-])c1ccc(Oc2ccc(Cl)cc2Cl)cc1 [NIP, reference compound] | – | 5 | 5 | – | 5 | 5 | – | – | – | – | – | – | – | – | – | – | – | – | 2 | 4 | –
